Patent US7812022B2 (GlaxoSmithKline LLC, priority 2004, dated 2010)
Read-outs that look alike come from different tables or passages of the source.

Assays:
[1] = test system: BT474 and HN5 tumor cell lines; test: Methylene blue growth inhibition assay (cellular Method A); format: cell-based, Human; settings: 3 days, read-out: Activity (Method): growth inhibition IC50 class
Outline: (§1)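 Colo205, BT474 and HN5 cells in DMEM/10% FBS (BT474 10,000, HN5 3,000 cells/well) treated next day with compound in DMEM, 0.3% final DMSO, for 3 days at 37° C. Biomass stained with methylene blue, solubilized, read at OD 620; IC50 interpolated by nonlinear regression from % inhibition versus vehicle.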

Colo205 tumor cell lines = test: Methylene blue growth inhibition assay (cellular Method A), Colo205; format: cell-based, Human; settings: 3 days, read-out: Activity (Method): growth inhibition IC50 class
Outline: as §1

ErbB2 or EGFR = molecular target: T1, ErbB2 or EGFR; test: ErbB family substrate phosphorylation enzyme assay (HTRF), Method A or Method B; format: biochemical
T1 construct: enzymes purified from a baculovirus expression system; Reagent production was conducted essentially as described in Brignola, P. S., et al, (2002) J. Biol. Chem. 277(2): 1576-1585
Outline: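 Baculovirus-expressed EGFR or ErbB2 (0.8 or 10 nM in enzyme mix) phosphorylates biotinylated Peptide C with 20 µM ATP and 0.8 µM peptide (substrate-mix levels), MnCl2, pH 7.5. Reaction ran 90 min at 20 °C with EDTA stop and HTRF anti-phosphotyrosine read. Method A: enzyme added last; Method B: 1 h enzyme–compound preincubation.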

[2] = Method A: substrate mix added first, reaction started with enzyme mix
[3] = Method B: enzyme mix pre-incubated with compound 1 hour at 20° C., started with substrate mix

Row | IC50 ([1]; Homo sapiens, BT-474, 72 h) [nM] | IC50 (Colo205 tumor cell lines; Homo sapiens, COLO 205, 72 h) [nM] | IC50 [1] [nM] | IC50 (Colo205 tumor cell lines) [nM] | Compound | Activity (Method): pIC50 class against ErbB2 or EGFR (ErbB2 or EGFR; [2]) | Activity (Method): pIC50 class against ErbB2 or EGFR (ErbB2 or EGFR; [3])
1 | < 100 | 100 to 1000 | – | – | CN1CCN(CCOc2ccc(Nc3nccc(-c4c(-c5cccc(NC(=O)c6c(F)cccc6F)c5)nn5ccccc45)n3)cc2)CC1 [Example 106, 2,6-Difluoro-N-[3-(3-{2-[(4-{[2-(4-methyl-1-piperazinyl)ethyl]oxy}phenyl)amino]-4-pyrimidinyl}pyrazolo[1,5-a]pyridin-2-yl)phenyl]benzamide] | +++ (A) (at least one pIC50 measurement of greater than 7 against either ErbB2 or EGFR) | –
2 | < 100 | < 100 | – | – | CCN1CCN(c2ccc(Nc3nccc(-c4c(-c5cccc(NC(=O)c6c(F)cccc6F)c5)nn5ccccc45)n3)cc2)CC1 [Example 107, N-{3-[3-(2-{[4-(4-ethyl-1-piperazinyl)phenyl]amino}-4-pyrimidinyl)pyrazolo[1,5-a]pyridin-2-yl]phenyl}-2,6-difluorobenzamide] | – | +++ (B) (at least one pIC50 measurement of greater than 7 against either ErbB2 or EGFR)
3 | < 100 | < 100 | – | – | CN(C)Cc1ccc(Nc2nccc(-c3c(-c4cccc(NC(=O)c5c(F)cccc5F)c4)nn4ccccc34)n2)cc1 [Example 108, N-(3-{3-[2-({4-[(Dimethylamino)methyl]phenyl}-amino)-4-pyrimidinyl]pyrazolo[1,5-a]pyridin-2-yl}phenyl)-2,6-difluorobenzamide] | – | +++ (B) (at least one pIC50 measurement of greater than 7 against either ErbB2 or EGFR)
4 | < 100 | 100 to 1000 | – | – | CN1CCN(c2cccc(Nc3nccc(-c4c(-c5cccc(NC(=O)c6c(F)cccc6F)c5)nn5ccccc45)n3)c2)CC1 [Example 109, 2,6-Difluoro-N-{3-[3-(2-{[3-(4-methyl-1-piperazinyl)-phenyl]amino}-4-pyrimidinyl)pyrazolo[1,5-a]pyridin-2-yl]phenyl}benzamide] | – | +++ (B) (at least one pIC50 measurement of greater than 7 against either ErbB2 or EGFR)
5 | 100 to 1000 | 100 to 1000 | – | – | CN(C)CC(=O)Nc1cccc(Nc2nccc(-c3c(-c4cccc(NC(=O)c5c(F)cccc5F)c4)nn4ccccc34)n2)c1 [Example 110, N-(3-{3-[2-({3-[(N,N-dimethylglycyl)amino]phenyl}-amino)-4-pyrimidinyl]pyrazolo[1,5-a]pyridin-2-yl}phenyl)-2,6-difluorobenzamide] | – | +++ (B) (at least one pIC50 measurement of greater than 7 against either ErbB2 or EGFR)
6 | < 100 | 100 to 1000 | – | – | CS(=O)(=O)Cc1ccc(Nc2nccc(-c3c(-c4cccc(NC(=O)c5c(F)cccc5F)c4)nn4ccccc34)n2)cc1 [Example 116, 2,6-Difluoro-N-(3-{3-[2-({4-[(methylsulfonyl)methyl]-phenyl}amino)-4-pyrimidinyl]pyrazolo[1,5-a]pyridin-2-yl}phenyl)benzamide] | – | +++ (B) (at least one pIC50 measurement of greater than 7 against either ErbB2 or EGFR)
7 | < 100 | 100 to 1000 | – | – | NS(=O)(=O)c1cccc(Nc2nccc(-c3c(-c4cccc(NC(=O)c5c(F)cccc5F)c4)nn4ccccc34)n2)c1 [Example 118, N-{3-[3-(2-{[3-(aminosulfonyl)phenyl]amino}-4-pyrimidinyl)pyrazolo[1,5-a]pyridin-2-yl]phenyl}-2,6-difluorobenzamide] | – | +++ (B) (at least one pIC50 measurement of greater than 7 against either ErbB2 or EGFR)
8 | < 100 | 100 to 1000 | – | – | NS(=O)(=O)CCc1cccc(Nc2nccc(-c3c(-c4cccc(NC(=O)c5c(F)cccc5F)c4)nn4ccccc34)n2)c1 [Example 119, N-(3-{3-[2-({3-[2-(aminosulfonyl)ethyl]phenyl}-amino)-4-pyrimidinyl]pyrazolo[1,5-a]pyridin-2-yl}phenyl)-2,6-difluorobenzamide] | – | +++ (B) (at least one pIC50 measurement of greater than 7 against either ErbB2 or EGFR)
9 | 100 to 1000 | 100 to 1000 | – | – | COc1cc(Nc2nccc(-c3c(-c4cccc(NC(=O)c5c(F)cccc5F)c4)nn4ccccc34)n2)cc(OC)c1OC [Example 120, 2,6-Difluoro-N-{3-[3-(2-{[3,4,5-tris(methyloxy)-phenyl]amino}-4-pyrimidinyl)pyrazolo[1,5-a]pyridin-2-yl]phenyl}benzamide] | – | +++ (B) (at least one pIC50 measurement of greater than 7 against either ErbB2 or EGFR)
10 | 100 to 1000 | > 1000 | – | – | CCS(=O)(=O)c1ccc(OC)c(Nc2nccc(-c3c(-c4cccc(NC(=O)c5c(F)cccc5F)c4)nn4ccccc34)n2)c1 [Example 121, N-{3-[3-(2-{[5-(ethylsulfonyl)-2-(methyloxy)phenyl]-amino}-4-pyrimidinyl)pyrazolo[1,5-a]pyridin-2-yl]phenyl}-2,6-difluorobenzamide] | +++ (A) (at least one pIC50 measurement of greater than 7 against either ErbB2 or EGFR) | –
11 | – | – | 100 to 1000 | 100 to 1000 | COc1cc(CS(C)(=O)=O)ccc1Nc1nccc(-c2c(-c3cccc(NC(=O)c4c(F)cccc4F)c3)nn3ccccc23)n1 [Example 122] | – | +++ (B) (at least one pIC50 measurement of greater than 7 against either ErbB2 or EGFR)
12 | < 100 | 100 to 1000 | – | – | CN(C)CCCOc1ccc(Nc2nccc(-c3c(-c4cccc(NC(=O)c5c(F)cccc5F)c4)nn4ccccc34)n2)cc1Cl [Example 126, N-[3-(3-{2-[(3-Chloro-4-{[3-(dimethylamino)propyl]-oxy}phenyl)amino]-4-pyrimidinyl}pyrazolo[1,5-a]pyridin-2-yl)phenyl]-2,6-difluorobenzamide] | – | +++ (B) (at least one pIC50 measurement of greater than 7 against either ErbB2 or EGFR)
13 | < 100 | 100 to 1000 | – | – | O=C(Nc1cccc(-c2nn3ccccc3c2-c2ccnc(Nc3ccc(OCCN4CCOCC4)c(Cl)c3)n2)c1)c1c(F)cccc1F [Example 127, N-[3-(3-{2-[(3-Chloro-4-{[2-(4-morpholinyl)ethyl]-oxy}phenyl)amino]-4-pyrimidinyl}pyrazolo[1,5-a]pyridin-2-yl)phenyl]-2,6-difluorobenzamide] | – | +++ (B) (at least one pIC50 measurement of greater than 7 against either ErbB2 or EGFR)
14 | < 100 | 100 to 1000 | – | – | CCN(CC)CCCOc1ccc(Nc2nccc(-c3c(-c4cccc(NC(=O)c5c(F)cccc5F)c4)nn4ccccc34)n2)cc1F [Example 131, N-[3-(3-{2-[(4-{[3-(Diethylamino)propyl]oxy}-3-fluorophenyl)amino]-4-pyrimidinyl}pyrazolo[1,5-a]pyridin-2-yl)phenyl]-2,6-difluorobenzamide] | – | +++ (B) (at least one pIC50 measurement of greater than 7 against either ErbB2 or EGFR)
15 | < 100 | < 100 | – | – | CN1CCC[C@H]1COc1ccc(Nc2nccc(-c3c(-c4cccc(NC(=O)c5c(F)cccc5F)c4)nn4ccccc34)n2)cc1F [Example 132, 2,6-Difluoro-N-{3-[3-(2-{[3-fluoro-4-({[(2S)-1-methyl-2-pyrrolidinyl]methyl}oxy)phenyl]amino}-4-pyrimidinyl)pyrazolo[1,5-a]pyridin-2-yl]phenyl}benzamide] | – | +++ (B) (at least one pIC50 measurement of greater than 7 against either ErbB2 or EGFR)
16 | < 100 | 100 to 1000 | – | – | O=C(Nc1cccc(-c2nn3ccccc3c2-c2ccnc(Nc3ccc(OCCN4CCCC4=O)c(F)c3)n2)c1)c1c(F)cccc1F [Example 133, 2,6-Difluoro-N-[3-(3-{2-[(3-fluoro-4-{[2-(2-oxo-1-pyrrolidinyl)ethyl]oxy}phenyl)amino]-4-pyrimidinyl}pyrazolo[1,5-a]pyridin-2-yl)phenyl]benzamide] | – | +++ (B) (at least one pIC50 measurement of greater than 7 against either ErbB2 or EGFR)
17 | < 100 | > 1000 | – | – | O=C(Nc1cccc(-c2nn3ccccc3c2-c2ccnc(Nc3ccc(OCCN4CCCCC4)c(F)c3)n2)c1)c1c(F)cccc1F [Example 134, 2,6-Difluoro-N-[3-(3-{2-[(3-fluoro-4-{[2-(1-piperidinyl)ethyl]oxy}phenyl)amino]-4-pyrimidinyl}pyrazolo[1,5-a]pyridin-2-yl)phenyl]benzamide] | +++ (A) (at least one pIC50 measurement of greater than 7 against either ErbB2 or EGFR) | –
18 | < 100 | 100 to 1000 | – | – | O=C(Nc1cccc(-c2nn3ccccc3c2-c2ccnc(Nc3cccc(OCCN4CCCC4)c3)n2)c1)c1c(F)cccc1F [Example 136, 2,6-Difluoro-N-[3-(3-{2-[(3-{[2-(1-pyrrolidinyl)ethyl]oxy}phenyl)amino]-4-pyrimidinyl}pyrazolo[1,5-a]pyridin-2-yl)phenyl]benzamide] | – | +++ (B) (at least one pIC50 measurement of greater than 7 against either ErbB2 or EGFR)
